Experimental data published in patent publication US20250127898A1, “PHOTODYNAMIC THERAPY AND DIAGNOSIS” (RMW CHO Group Limited, priority 2021, published 2025).
Counter-ions that a name gives are not always drawn. Like-named read-outs stand apart in the source and are kept apart here.

Tests used:
[1] = system: Human ovarian cancer cell line SKOV3; experiment: Phototoxicity in SKOV3 cells after 660 nm laser or LED activation (AlamarBlue viability); format: cell-based
Experimental: Samples were stored at 4° C. protected from light. […] All data are shown as mean±SD (where appropriate). […] Laser and LED exposure induce an equivalent response in relation to phototoxicity. Following activation, cells were cultured for a further 24 hours. Media was then replaced with fresh media containing AlamarBlue, and % viable cells remaining assessed as above. Controls included cells treated with reduced chlorin analogues but not activated by laser light; cells without reduced chlorin analogue treatment but with laser light; and untreated controls. All measurements were made in quadruplicate.

[2] = system: Human ovarian cancer cell line SKOV3; experiment: Inherent cytotoxicity (dark toxicity) in SKOV3 cells (AlamarBlue viability); format: cell-based
Experimental: Photosensitizers (e.g. chlorin analogue, chlorin e4 disodium (provided by Advanced Molecular Technologies, Scoresby) or Talaporfin sodium (purchased from Focus Bioscience cat #HY-16477-5MG)) were resuspended in 100% dimethylsulfoxide (DMSO) at a concentration of 5.5 mM. Samples were stored at 4° C. protected from light.
All data are shown as mean±SD (where appropriate).
Untreated cells were used as a control. […] All measurements were made in quadruplicate.

[3] = SKOV3 cells, 24 hours uptake, 660 nm laser, 50 mW/cm^2 for 5 mins (15 J/cm^2), viability 24 hours after activation, read-out: Phototoxicity μM (IC90)
[4] = SKOV3 cells, 24 hours incubation, no light activation
[5] = Homo sapiens, SK-OV-3, light or radiation study, SKOV3 cancer cells, laser or LED, read-out: phototoxicity IC90
[6] = Homo sapiens, SK-OV-3, light or radiation study, SKOV3 cells, 24 hours uptake, 660 nm LED panel, 50 mW/cm^2 for 5 mins (15 J/cm^2), values marked *, read-out: Phototoxicity μM (IC90), measured by LED
[7] = Homo sapiens, SK-OV-3, light or radiation study, SKOV3 cells, 24 hours uptake, 660 nm laser, 50 mW/cm^2 for 5 mins (15 J/cm^2), viability 24 hours after activation, read-out: Phototoxicity μM (IC90)
[8] = SKOV3 cells, vs phyllochlorin free acid / phyllochlorin sodium salt

Compound	Dark toxicity μM (IC10) ([2]; human, 24 h) [µM]	IC90 [1, 7] [µM]	further results
C=Cc1c(C)c2cc3nc(c(C)c4[nH]c(cc5nc(cc1[nH]2)C(C)=C5CC)c(C)c4C(=O)O)[C@@H](CCC(=O)O)[C@@H]3C [Chlorin e4 disodium, chlorin e4 disodium, reference compound]			IC90 [1, 3]: 21.3 µM; Dark toxicity μM (IC10) [2, 4]: 40.23 µM
CCC1=C(C)c2cc3[nH]c(cc4nc(c(C)c5cc(C)c(cc1n2)[nH]5)[C@@H](CCC[P+](c1ccccc1)(c1ccccc1)c1ccccc1)[C@@H]4C)c(C)c3CC [Compound 27, Reduced Phyllochlorin 3-triphenylphosphonium Propyl Iodide]	1.326		IC90 [1, 5]: ≤ 0.01 µM; IC90 [1, 6]: 0.0055 µM
CCC1=C(C)c2cc3[nH]c(cc4nc(c5c6[nH]c(cc1n2)c(C)c6C(=O)OC5)[C@@H](CCC(=O)O)[C@@H]4C)c(C)c3CC [Compound 39, Reduced Chlorin K]	6.613		IC90 [1, 6]: 0.141 µM
CCC1=C(C)c2cc3[nH]c(cc4nc(c(C)c5cc(C)c(cc1n2)[nH]5)[C@@H](CCC(=O)N(C)CCOCCOCCO)[C@@H]4C)c(C)c3CC [Compound 12, Reduced Phyllochlorin N-(2-(2-(2-hydroxyethoxy)ethoxy)ethyl)-N-methyl-3-amide]	5.975	0.078	
CCC1=C(C)c2cc3[nH]c(cc4nc(c(C)c5cc(C)c(cc1n2)[nH]5)[C@@H](CCCN)[C@@H]4C)c(C)c3CC [Compound 18, Reduced Phyllochlorin 3-aminopropyl]	3.946	0.01	IC90 [1, 5]: ≤ 0.01 µM
CCC1=C(C)c2cc3[nH]c(cc4nc(c(C)c5cc(C)c(cc1n2)[nH]5)[C@@H](CCC(=O)N[C@@H]1C(O)O[C@H](CO)[C@@H](O)[C@@H]1O)[C@@H]4C)c(C)c3CC (stereo partly drawn) [Compound 15, Reduced Phyllochlorin 2-deoxy-D-mannosamine-propylamide]	5.400	0.07	
C=Cc1c(C)c2cc3nc(c(CC(=O)N[C@@H](CC(=O)O)C(=O)O)c4[nH]c(cc5nc(cc1[nH]2)C(C)=C5CC)c(C)c4C(=O)O)[C@@H](CCC(=O)O)[C@@H]3C [Talaporfin sodium, reference compound]	11.10		
Phyllochlorin free acid [reference compound]			IC90 [1, 3]: 0.43 µM; Dark toxicity μM (IC10) [2, 4]: 13.50 µM
CCC1=C(C)c2cc3[nH]c(cc4nc(c(C)c5cc(C)c(cc1n2)[nH]5)[C@@H](CCC(=O)[O-])[C@@H]4C)c(C)c3CC.[Na+] [Compound 2, Reduced Phyllochlorin Sodium Salt]		0.071	increase in phototoxicity of meso-compound compared to non-meso analogue [1, 8]: 4.9 fold; Dark toxicity μM (IC10) [2, 4]: 47.840 µM; Dark toxicity compared to non-meso analogue [2, 8]: largely unaffected
Reduced Phyllochlorin N-(2-(2-hydroxyethoxy)ethyl)-N-methylpropylamide [Compound 7]			IC90 [1, 3]: 0.036 µM; Dark toxicity μM (IC10) [2]: 26.100 µM
CCC1=C(C)c2cc3[nH]c(cc4nc(c(C)c5cc(C)c(cc1n2)[nH]5)[C@@H](CCC(=O)N(C)CCCO)[C@@H]4C)c(C)c3CC [Compound 22, Reduced Phyllochlorin N-3-hydroxypropyl-N-methyl Propylamide]	4.348	0.042	
CCC1=C(C)c2cc3[nH]c(cc4nc(c(C)c5cc(C)c(cc1n2)[nH]5)[C@@H](CCC(=O)N[C@@H](CCCCN)C(=O)N(C)C)[C@@H]4C)c(C)c3CC [Compound 31, Reduced Phyllochlorin N-Lysyl Dimethylamide Propylamide Hydrochloride]	8.850		IC90 [1, 6]: 0.011 µM
Reduced Phyllochlorin N-(2-(2-(2-picolinylethoxy)ethoxy)ethyl)-N-methyl-3-amide chloride [Compound 28]			IC90 ([1]; SKOV3 cells, 24 hours uptake, 660 nm LED panel, 50 mW/cm^2 for 5 mins (15 J/cm^2), values marked *, read-out: Phototoxicity μM (IC90), measured by LED): 0.0326 µM; Dark toxicity μM (IC10) [2, 4]: 1.510 µM
CCC1=C(C)c2cc3[nH]c(cc4nc(c(C)c5cc(C)c(cc1n2)[nH]5)[C@@H](CCC(=O)N(C)CCCS[C@@H]1O[C@H](CO)[C@@H](O)[C@H](O)[C@H]1O)[C@@H]4C)c(C)c3CC [Compound 4, Reduced Phyllochlorin β-D-1-thioglucose-N-methylpropylamide]	2.780	0.068	
CCC1=C(C)c2cc3[nH]c(cc4nc(c(C)c5cc(C)c(cc1n2)[nH]5)[C@@H](CCC(=O)N(C)CCCCCO)[C@@H]4C)c(C)c3CC [Compound 23, Reduced Phyllochlorin N-5-hydroxypentyl-N-methyl Propylamide]	4.540	0.064	
Reduced Phyllochlorin Methyl Ester [Compound 6]			IC90 [1, 3]: 0.371 µM; Dark toxicity μM (IC10) [2]: 11.650 µM
CCC1=C(C)c2cc3[nH]c(cc4nc(c(C)c5cc(C)c(cc1n2)[nH]5)[C@@H](CCC(=O)N(C)C[C@H](O)[C@@H](O)[C@H](O)[C@H](O)CO)[C@@H]4C)c(C)c3CC [Compound 10, Reduced Phyllochlorin N-meglumine-propylamide]	4.905		
CCC1=C(C)c2cc3[nH]c(cc4nc(c(C)c5cc(C)c(cc1n2)[nH]5)[C@@H](CCC(=O)N(C)CCO)[C@@H]4C)c(C)c3CC [Compound 19, Reduced Phyllochlorin N-2-hydroxyethyl-N-methyl propylamide]	15.940	0.061	
CCC1=C(C)c2cc3[nH]c(cc4nc(c(C)c5cc(C)c(cc1n2)[nH]5)[C@@H](CCC(=O)N(C)CCC[S+]([O-])[C@@H]1O[C@H](CO)[C@@H](O)[C@H](O)[C@H]1O)[C@@H]4C)c(C)c3CC (stereo partly drawn) [Compound 17, Reduced Phyllochlorin β-D-1-thioglucose-N-methylpropylamide sulfoxide]	4.752	0.174	
CCC1=C(C)c2cc3[nH]c(cc4nc(c(C)c5cc(C)c(cc1n2)[nH]5)[C@@H](CCCO)[C@@H]4C)c(C)c3CC [Compound 20, Reduced Phyllochlorin 3-hydroxypropyl]	5.825	0.063	
CCC1=C(C)c2cc3[nH]c(cc4nc(c5c6[nH]c(cc1n2)c(C)c6C(=O)OC5)[C@@H](CCC(=O)N(C)CCCS[C@@H]1O[C@H](CO)[C@@H](O)[C@H](O)[C@H]1O)[C@@H]4C)c(C)c3CC [Compound 40, Reduced Chlorin K β-D-1-thioglucose-N-methylpropylamide]	3.222		IC90 [1, 6]: 0.229 µM
CCC1=C(C)c2cc3[nH]c(cc4nc(c(C)c5cc(C)c(cc1n2)[nH]5)[C@@H](CCC(=O)N(C)CCOCCOCCOCCOCCOCCOC)[C@@H]4C)c(C)c3CC [Compound 14, Reduced Phyllochlorin N-methyl-N-3,6,9,12,15,18-hexaoxanonadecyl propylamide]	3.940	0.161	
CCC1=C(C)c2cc3[nH]c(cc4nc(c(C)c5cc(C)c(cc1n2)[nH]5)[C@@H](CCC(=O)N(C)CCOCCOCC[P+](c1ccccc1)(c1ccccc1)c1ccccc1)[C@@H]4C)c(C)c3CC [Compound 16, Reduced Phyllochlorin N-(2-(2-(2-triphenylphosphoniumethoxy)ethoxy)ethyl)-N-methyl-3-amide chloride]	3.205	0.011	
CCC1=C(C)c2cc3[nH]c(cc4nc(c(C)c5cc(C)c(cc1n2)[nH]5)[C@@H](CCC(=O)N(C)CCCO[C@@H]1O[C@H](CO)[C@@H](O)[C@H](O)[C@H]1O)[C@@H]4C)c(C)c3CC [Compound 9, Reduced Phyllochlorin β-D-glucosyl-N-methylpropylamide]	12.780	0.098	
